Measured values as given in patent US20220090021A1, “IN VITRO HUMAN BLOOD BRAIN BARRIER” (Massachusetts Institute of Technology, priority 2019, published 2022).

Tests used:
[1] = test system: E3/3 iBBB; assay: Amyloid accumulation in E3/3 iBBB exposed to conditioned media from inhibitor-treated E4/4 pericytes; type: cell-based, human; conditions: media harvested from inhibitor-treated E4/4 pericytes, versus DMSO
Procedure: (§1) Amyloid accumulation was determined using both neuronal cell conditioned media and 20 nM recombinant labeled Hilyte fluor 488 β-amyloid (1-40) (Anaspec, AS-60491-01) and β-amyloid (1-42) (Anaspec, AS-60479-01) resuspended in PBS. Aβ accumulation for each cell line and experimental permutation was determined from 2D cultures containing all three cells types containing same ratio of cells as 3D experiments. Total area positive for Aβ was divided by the total number of nuclei and normalized to experimental controls. At least four images for each biological replicate were analyzed and for each condition at least three biological replicates were employed. 2D quantifications were corroborated by 3D imaging and analysis.
We then added 20 nM Aβ1-40/42-FITC to the cultures for an additional 48 hours after which we quantified the accumulation of AP-FITC for each condition.

[2] = test system: APOE; assay: APOE gene expression in iPSC-derived pericytes after two weeks of CaN inhibition (qRT-PCR); type: cell-based, human
Procedure: Total RNA was isolated using Trizol and zymogen RNA-direct spin column treated with DNAse on column of 30 minutes prior to washing and elution. For RT-PCRs, 500 ng of total RNA was reverse transcribed into cDNA with iScript (BioRad). Expression was quantified by SsoFast EvaGreen supermix (BioRad). For RNAsequencing, extracted total RNA was subject to QC using an Advanced Analytical-fragment Analyzer before library preparation using Illumina Neoprep stranded RNA-seq library preparation kit. Libraries were pooled for sequencing using Illumina HiSeq2000 or NextSeq500 platforms at the MIT Biomicro Center. The raw fastq data were aligned to human hg19 assembly using STAR 2.4.0 RNA-seq aligner. Mapped RNA-seq reads covering the edited APOE3/4 site were used to validate data genotypes. Gene raw counts were generated from the mapped data using feature Counts tool. The mapped reads were also processed by Cufflinks2.2 with hg19 reference gene annotation to estimate transcript abundances. Gene differential expression test between APOE3 and APOE4 groups of each cell type was performed using Cuffdiff module with adjusted q-value <0.05 for statistical significance. Geometric method was chosen as the library normalization method for Cuffdiff. Color-coded scatterplots were used to visualize group FPKM values for differentially expressed genes and other genes.

[3] = test system: iBBB
Description: To more fully assess the barrier properties of the iBBB we compared the paracellular permeability of molecules with molecular weights ranging from 0.1 to 80 kDa. […] To rule out the possibility that the reduced permeability of the iBBB was simply the result of additional layers of cells, we layered on top of BECs double the normal number of pericyte-only, astrocytes-only or a non-relevant cell type, mouse embryonic fibroblasts (MEFs).
The genotype distinction between APOE4/4 cells (isogenic) and APOE3/3 (parental) was assessed in terms of permeability of an iBBB membrane. FIG. 13A presents a schematic showing the iBBB with fluorescent molecules positioned on the Apical surface, which are then allowed to transition through the iBBB from the Apical surface to the Basolateral surface (FIG. 13B).

[4] = test system: iBBB; assay: Amyloid (Aβ-FITC) accumulation in iBBB; type: cell-based, human; conditions: APOE3/3 iBBB; APOE raised to approximately 200 ng/ml, E3 or E4; labeled Aβ for 96 hours
Procedure: as §1

With `O=C1C=CC(=O)C2=C1C1c3ccccc3C2c2ccccc21` [INCA6] the amyloid accumulation [1] was “significantly reduced”, the APOE expression ([2]; APOE4/4 pericytes, two weeks, CsA 2 μM, FK506 5 μM, INCA6 5 μM, qRT-PCR) was “significantly reduced” and the “expression of APOE” value ([2]; E3/4 heterozygous pericytes from three individuals) was “significant reduction”.

“Aβ42-FITC: FITC-labeled amyloid-β 1-42 peptide” was tested, and the “permeability and accumulation on the Basolateral surface, APOE4/4 iBBB versus parental APOE3/3 iBBB” value [3] was “greater permeability”.

In the case of “recombinant human APOE protein: recombinant human APOE protein (E3 or E4) added to iBBB culture media”, the Aβ accumulation [4] is reported as “increase”.

In the case of “transferrin: fluorescently labeled Transferrin (ThermoFisher T-13342), permeability tracer”, the “permeability and accumulation on the Basolateral surface, APOE4/4 iBBB versus parental APOE3/3 iBBB” value [3] is reported as “greater permeability”.
